Experimental data: PMC12851007 (Angewandte Chemie (International Ed. in English), 2025)
Where two headings read alike, the source gives them in different places.

Assays:
[1] = Dual-channel assay, CX4/LCG channel, POPC vesicles; format: in vitro ADME; conditions: dual-channel; seven independent POPC LUV batches (n = 7), penetratin 15 µM, Pep-1 10 µM, LRLLRW 30 µM, TP10 0.15 µM, 10 mM Hepes, 175 mM glucose, pH 7.5, t-test/ANOVA p < 0.001; melittin: Figure S35 and Table S9
Excerpt: With the established identical extravesicular conditions in both assays, we further envisaged a simultaneous measurement of both assays within the same solution to enhance the comparability of the measurements. This became possible after optimization of the excitation and emission wavelengths. […] A further optimization was required, because the dye concentrations in the CF assay and the CX4/LCG assay are largely different.^[ [51], [52] ^] Consequently, simultaneous monitoring requires the detection of a low amount of LCG in the presence of a high concentration of the much more brightly fluorescent CF, which challenges the dynamic range of a typical fluorescence spectrometer in a dual‐channel measurement. To reduce the fluorescence read‐out of CF, the excitation wavelength was shifted from the absorption maximum at ca. 490 nm to 525 nm, where CF has a much lower absorbance, and the emission in the CF channel was shifted from its maximum at ca. 515 nm to 545 nm to further reduce the fluorescence of CF. To maintain a high LCG fluorescence, excitation was performed at the absorption maximum at 369 nm. Since CF has a residual absorbance at this excitation wavelength, emission in the LCG channel was monitored at 475 nm instead of 502 nm to eliminate spill‐over of CF fluorescence into the LCG channel. […]
Time-dep endent fluores cence intensit y traces, I (t), were subsequentl y normalized to fractional intensities, If(t), using equation (1) and the concentration- dependent fractional intensities just before the addition of th e calibration co cktail, I f, w ere then normaliz ed to fr actional membran e activities, Y, using equation (2). The fractional membrane activities, Y, were subsequently plotted against the peptide concentration, c, and anal ysed using the Hill equation (3) to obtain the effective molar concentration, EC 50, and the Hill coefficient, n. For peptides with too low activity to determine Y max ex perimentall y, Y max was fixed at 1.0 during fitting. […]
Dual-Channel Measurements
Vesicles w ere prep ared a s described abov e (se e en try (4) in Table S2 and entry (3) in Table S3) and eluted with freshl y prepared 10 mM Hepes, 175mM glucos e, pH 7.5 i n the size exclusion chromatograph y. For the measurements, an approp riate volume o f the liposome stock solutions was diluted to 2m L in a 10× 10 mm PS cuvette wi th 10 mM Hep es bu ffer and 175 mM glucos e at pH 7.5 to afford 12.5µM POPC ⊃CX4/LCG-LUVs and 12.5 µM POPC⊃CF-LUVs (25 µM POPC total). The cuvette was placed into a thermostatted fluorimeter sample holder at 25.0 °C and gentl y stirred at 300 rpm. The fluorescence intensity w as simultaneous l y r eco rded in the CF chann el ( λ exc = 525 nm, λ em = 545 nm) and in the LCG channel ( λ exc = 369 nm, λ em = 475 nm) with an ex citation slit width of 5 nm and an emission slit width of 5 n m during addition of 20 µL peptide stock solution of varying concentrations at 60 s and 20 µL of a calibration

[2] = CX4/LCG tandem membrane assay with subsequent addition of spermine (transient vs stable pores); format: in vitro ADME; conditions: TP10 0.2 µM or melittin 5 nM at 60 s, spermine 20 µM at 340 s, 10 mM Hepes, 175 mM glucose, pH 7.5
Experimental: This means that TP10 renders the vesicle membranes only transiently permeable, while after some time, the pores “close”, most likely due to equilibration of the inside and outside concentrations of TP10. At sufficiently low TP10 concentrations, the vesicles have consequently released only some of their content after a certain incubation time and no further release of encapsulated compounds is observed thereafter. The transient nature of the TP10 pores was also confirmed herein by the CX4/LCG tandem membrane assay (Figure 4, black line). […] At this point of time, the TP10 pores should be either closed, or there should be some remaining stable equilibrium pores, which are too small to allow efflux of relatively large CX4 and/or LCG (MW > 500 Da), but sufficiently large to allow CF efflux (MW = 376 Da). Closed pores would refer to the previously reported graded mechanism, whereas the latter would point toward an all‐or‐none release mechanism.^[ [12], [70] ^] […] The newly developed assay has therefore the added capacity to afford more fine‐grained mechanistic information on membrane activity.
The blue trace is a control to illustrate full dissociation of the CX4/LCG complex during vesicle lysis by TX‐100.
LysisLysis vesicle lysisvesicle lysis […]
calibration cocktail at 600 s. a) Original changes in fluorescence intensity of LCG ( λex = 369 nm, λem = […]

[3] = format: binding; conditions: LCG displacement in 10 mM Hepes, pH 7.0, 25 °C; fluorescence; error = SD of nonlinear fit, n = 1
Experimental: Fluorescence titrations were performed as previously described and the resulting titration curves we re an al yz ed usi ng established pro cedur es . Competitive titrations were eithe r anal yz ed with a fitting function assuming 1:1 host-competitor complexes[3] or with a fitting function involving hi gher complex es with more than on e h ost bound per peptide.[4] In the latter c ase, an identical binding affinity is assumed for all binding sites. […]
Figure S1. a) Fluorescence titration of 0.5 µM LCG ( λex = 369 n m) with varying concentrations of CX4 in 10 mM Hepes, pH 7.0, 25 °C .b) Respective titration curve ( λem = 502 nm) with fitted line . […]
Figure S2. a) Competitive fluorescence titration wit h 0.5 µM LCG, 1 µM CX4 ( λex = 369 nm) and varying concentrations of penetratin in 10 mM Hepes, pH 7.0, 25 °C . b) Respective titration c ur ve (λem = 502 nm) with fitted line .
(also on this page, place not known: analyzed using procedures. were either analyzed host -competitor higher complexes one host case, 700 Intensity Intensity (λex °C. line. 650 0 Intensity 0 Intensity b) curve (λem nm) with line.)

[4] = CX4/LCG supramolecular tandem membrane assay, POPC vesicles; format: in vitro ADME; conditions: 30 µM peptide; 25 µM POPC⸧CX4/LCG-LUVs (inside 700 µM CX4, 500 µM LCG) in 10 mM Hepes, pH 7.0, 25 °C; fluorescence λexc 369/λem 502 nm; peptide at 60 s, TX-100/protamine at 600 s; fractional activity; n = 1
Experimental: Membrane Activity M easurements
Vesicle preparation. 100 µ L of a solution of 25 mg/ml of POPC in chloroform or 200 µ L of a solution of 25 mg/ml of EYPC in chloroform was purged with nitrogen and dried overnight under hi gh vacuum. The thin lipid film was rehydrated with 1 ml reh ydrati on buffer (= inside buffer, see Tabl e S2 ) b y agitation at room temperature for 30min and then subjected to 2 0 freeze- th aw c ycles (freezing in liquid nitro gen and thawing at 40 °C). […]
Ta b l e S 2. Combinations of lipids and inside and outside buffer for CX4/LCG -LUVs.
No. Lipid Inside buffer = rehydration buffer Outside buffer
(4) POPC 10 mM Hepes, 700 µM CX4, 500 µM LCG, 10 mM Hepes buffer, 175 mM glucose, pH 7.5 [a] 175 mM glucose, pH 7.5 [a]
[a] Glucose b uffers (183 mOsm/L at 25 °C) were used within one week after preparation.
Vesicle quality control. T o ensure the absence of the CX4/ LCG reporter pair in the ex travesicular ph ase, 20 µL of the collected liposome fr action w as diluted to 2 ml with outside buffer and the fluor escen ce (λ exc = 369 nm; λ em = 502 nm) was recorded during the addition of […]
The final lipid content in the liposome suspension after p repa rat ion and separ ation was d etermined b y NMR as p reviousl y reported. Assay protocol. An appropriate volume of the liposome stock solutions was diluted to 2m L with outside buffer in a 10 ×10 mm quartz glass cuvette to afford a phospholipid concentration of 25 µM. The cuvette was placed into a thermostatted fluorimeter sample holder at 25.0 °C and gentl y stirred at 300 rpm. Subsequently, the time-dependent change in fluorescence intensity (λ exc = 369 nm; λ em = 502 nm) was record ed during addition of 20 µ L of peptide stock solutions of varying concentrations at 60 s. At 600 s, 20µ L o f a solution containing 1.6% (wt/vol) TX-100 and 1.5 mM protamine was added for calibration to affo rd 0.016% (wt/vol) TX-100 and 15 µM protamine final concent rations.
Time-dep endent fluores cence intensit y traces, I (t), were subsequentl y normalized to fractional intensities, If(t), using equation (1). Therein, I 0 is the intensity just before addition of peptide and I ∞ is the constant intensit y after addition of the calibration cockt ail.
IIf (tt ) = II (tt )−II0II∞ − II0 (1)
The concentration-dependent fractional intensities just before the addition of the calibration cocktail, If, were then normalized to fractional membrane activities, Y, using equation (2).
Therein, If,0 is the fractional intensit y just before addition of the calibration cocktail in absence of peptide and I f,∞ is the constant fractional intensity after addition of the calibration cocktail.
YY = IIf − IIf,0IIf,∞ − IIf,0 (2)
The fractional membrane activities, Y, were subsequently plotted against the peptide concentration, c, and analysed using the Hill equation (3) to obtain the effective molar concentration, EC50, and the Hill coefficient, n. Y0 and Y ma x are the fractional membrane activities in absen ce o f p eptide and at max imal peptide concent rations. For peptides with too little activity to determine Y ma x ex perimentall y, Y max was fixed at 1.0 during fitting. […]

[5] = In 10 mM NaH2PO4, pH 7.2; ref [46]; cited from earlier work
Excerpt: Table 1 Binding constants of peptides to CX4. ^a) | column: K a (M^−1)

Row | SMILES | membrane activity in the CX4/LCG channel compared with the CF channel [1] | kind of pores (fluorescence response to spermine added after the peptide) [2] | K a, binding constant of peptide to CX4 [3] | Y30µM, membrane activity, CX4/LCG assay [4] | K a, binding constant of peptide to CX4 [5]
1 | CC[C@H](C)[C@H](NC(=O)CN)C(=O)NCC(=O)N[C@@H](C)C(=O)N[C@H](C(=O)N[C@@H](CC(C)C)C(=O)N[C@@H](CCCCN)C(=O)N[C@H](C(=O)N[C@@H](CC(C)C)C(=O)N[C@H](C(=O)N[C@H](C(=O)NCC(=O)N[C@@H](CC(C)C)C(=O)N1CCC[C@H]1C(=O)N[C@@H](C)C(=O)N[C@@H](CC(C)C)C(=O)N[C@H](C(=O)N[C@@H](CO)C(=O)N[C@@H](Cc1c[nH]c2ccccc12)C(=O)N[C@H](C(=O)N[C@@H](CCCCN)C(=O)N[C@@H](CCCNC(=N)N)C(=O)N[C@@H](CCCCN)C(=O)N[C@@H](CCCNC(=N)N)C(=O)N[C@@H](CCC(N)=O)C(=O)N[C@@H](CCC(N)=O)C(N)=O)[C@@H](C)CC)[C@@H](C)CC)[C@@H](C)O)[C@@H](C)O)C(C)C)C(C)C [Melittin] | higher activity with the CF assay | forms stable equilibrium pores | (1.2 ± 0.3) × 10^7 M^−1 |  | 
2 | N=C(N)NCCC[C@H](NC(=O)[C@H](CCCNC(=N)N)NC(=O)[C@H](CCCNC(=N)N)NC(=O)[C@H](CCCNC(=N)N)NC(=O)[C@H](CCCNC(=N)N)NC(=O)[C@H](CCCNC(=N)N)NC(=O)[C@@H](N)CCCNC(=N)N)C(=O)O [Peptide R7, heptaarginine] |  |  |  | 0.17 | (7.2 ± 0.5) × 10^7 M^−1
3 | N=C(N)NCCC[C@H](NC(=O)[C@H](CCCNC(=N)N)NC(=O)[C@H](CCCNC(=N)N)NC(=O)[C@H](CCCNC(=N)N)NC(=O)[C@H](CCCNC(=N)N)NC(=O)[C@H](CCCNC(=N)N)NC(=O)[C@H](CCCNC(=N)N)NC(=O)[C@H](CCCNC(=N)N)NC(=O)[C@@H](N)CCCNC(=N)N)C(=O)O [Peptide R9, nonaarginine] |  |  | (1.8 ± 0.4) × 10^8 M^−1 | 0.11 | 
